Measured values reported in publication PMC3974779, “Pterostilbene-Isothiocyanate Conjugate Suppresses Growth of Prostate Cancer Cells Irrespective of Androgen Receptor Status” (PLoS ONE, 2014).

What was measured:
PC-3 cells = test: Annexin-V/PI apoptosis assay by flow cytometry; format: cell-based, human; details: 24 h
Description: (§1) Cell cycle distribution and Annexin V/Propidium iodide (PI) positive cells were analyzed using flow cytometry. In brief, first the cells were seeded and treated with 0, 10, 20 and 40 μM conjugate in complete medium for 24 h. This was followed by trypsinizing and fixing in 70% ethanol, and finally washing with PBS. Subsequently, the cells were treated with RNase A (50 μg/ml), stained with PI (50 μg/ml) and incubated in the dark for 30 min at room temperature and analyzed by flow cytometry for cell cycle distribution. For apoptosis, the conjugate treated cells were stained with Alexa-Fluor 488-conjugated Annexin-V using the Vybrant-Apoptosis Assay Kit from Invitrogen (USA) as per the manufacturer’s protocol. The stained cells were then analyzed by fluorescence activated cell sorting (FACS Calibur, BD Biosciences, San Jose, CA, USA) and the data were standardized using Cell Quest 3.3 software.

LNCaP cells = test: Annexin-V/PI apoptosis assay by flow cytometry; format: cell-based, human; details: 24 h
Description: as §1

[1] = biological target: T1, androgen receptor in LNCaP cells (Homo sapiens, UniProt P10275, T878A); test: AR transactivation luciferase assay with/without exogenous SRC-1 and GRIP-1; format: cell-based; details: 10 μM with DHT
T1 construct: LNCaP cells, that express endogenous AR; endogenous in cells; host or cells: LNCaP
T1 sequence (P10275 1-920 T878A): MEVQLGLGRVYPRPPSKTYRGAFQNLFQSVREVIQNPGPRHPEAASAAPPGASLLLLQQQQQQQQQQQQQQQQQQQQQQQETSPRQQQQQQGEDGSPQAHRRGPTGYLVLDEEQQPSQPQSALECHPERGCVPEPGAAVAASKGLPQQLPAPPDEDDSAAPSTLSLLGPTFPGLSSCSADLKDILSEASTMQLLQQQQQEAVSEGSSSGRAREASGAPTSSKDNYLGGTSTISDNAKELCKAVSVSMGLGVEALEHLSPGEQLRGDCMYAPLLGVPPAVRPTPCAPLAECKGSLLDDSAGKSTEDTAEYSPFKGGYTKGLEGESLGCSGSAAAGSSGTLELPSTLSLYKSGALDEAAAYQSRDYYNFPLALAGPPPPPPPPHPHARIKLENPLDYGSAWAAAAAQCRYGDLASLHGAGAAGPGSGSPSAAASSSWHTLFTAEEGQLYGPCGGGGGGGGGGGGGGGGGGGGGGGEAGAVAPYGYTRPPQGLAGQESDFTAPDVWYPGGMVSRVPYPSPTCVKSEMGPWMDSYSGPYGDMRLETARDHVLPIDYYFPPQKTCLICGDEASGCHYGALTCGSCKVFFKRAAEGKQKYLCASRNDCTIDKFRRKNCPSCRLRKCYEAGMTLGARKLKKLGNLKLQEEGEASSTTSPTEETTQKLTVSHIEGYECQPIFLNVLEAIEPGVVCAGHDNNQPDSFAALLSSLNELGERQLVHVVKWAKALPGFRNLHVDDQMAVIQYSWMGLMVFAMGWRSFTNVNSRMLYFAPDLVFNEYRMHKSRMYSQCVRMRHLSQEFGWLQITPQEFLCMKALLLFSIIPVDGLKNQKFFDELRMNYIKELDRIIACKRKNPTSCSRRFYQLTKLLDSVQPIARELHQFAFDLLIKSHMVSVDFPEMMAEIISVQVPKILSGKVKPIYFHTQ
Description: The LNCaP cells were grown and transiently transfected with pMMTV-neomycin-luciferase plasmid (300 ng/10^5 cells) in RPMI media supplemented with 10% FBS using polyfect transfection reagent (Qiagen, CA, USA) according to manufacturer’s instructions. […] In case of PC-3 cells, they were similarly transfected, but in addition to pMMTV-neomycin-luciferase construct, they were also transfected with pSG5-hAR-puro plasmid (full length hAR in pSG5 expression vector) in the ratio of 5∶1 as indicated above. For experiments involving co-regulators, 50 ng of co-activator plasmids (25 ng each of GRIP-1 and SRC-1) along with pMMTV-neo-luc (250 ng) were transfected to LNCaP cells. To evaluate the transfection efficiency, 500 ng/105 cells of the SV40 promoter-Renilla luciferase (pRL-SV40) vector (Promega Madison, USA) were co-transfected as internal control. […] The values of luciferase for each lysates were normalized to the Renilla luciferase activity.

p-Akt in PC-3 cells = test: Immunoblot of Akt phosphorylation; format: cell-based, human; details: 24 h
Description: (§2) The whole-cell lysates were prepared as described previously in immunoprecipitation (IP) buffer containing 50 mM Tris-HCl (pH 8.0), 150 mM NaCl, 5 mM EDTA, and 1% Triton X-100. Protein aliquots of 500 μg were then incubated overnight at 4°C using 2 μg of antibody directed against AR. The Protein A-Cl Agarose beads were then added and further incubated for 6 h at 4°C. The immunoprecipitates were washed four times with the IP buffer and the immunocomplexes were recovered by boiling in SDS sample buffer. Finally the western blot was carried out using anti-AR, anti-SRC-1 and anti-GRIP-1 antibodies (Santa Cruz, CA, USA). For western blot analysis, the cell lysates were prepared after harvesting them in lysis buffer. About 40 μg of total protein was electrophoresed by 12% SDS-PAGE, and the western blotting was carried out using standard protocol. In brief, the analyzed proteins were transferred to nylon membranes. The blots were then blocked with TBST buffer (20 mM Tris-Cl, pH 7.5, 150 mM sodium chloride, 0.05% Tween-20) containing 5% skim milk powder. They were then washed with TBST buffer and incubated overnight at 4°C with the same buffer containing appropriate amounts of primary antibodies: caspase-3, Bax, Bcl-2, Akt, p-Akt, ERK, p-ERK, AR, SRC-1, GRIP-1 (1∶500) and β-actin (1∶1000). The blots were then washed and incubated with anti-rabbit secondary antibody (1∶20,000) conjugated with horseradish peroxidase (HRP). Color development was performed in the dark by using an ECL kit (Amersham, GE Healthcare, Buckinghamshire, UK). The developed blots were subjected to densitometric analysis by ImageJ 1.43 software (NIH, USA) using β-actin as internal control.
(§3) The siRNAs against human Akt and ERK and control siRNA were purchased commercially from Santa Cruz Biotechnology (USA). The LNCaP and PC-3 PCa cells were transfected with siRNAs (at a final concentration of 100 nM) using polyfect transfection reagent (Qiagen, CA, USA) according to manufacturer’s instructions. After 24 h of transfection, the cells were washed properly and replaced with fresh medium. The cells were then treated with 20 μM conjugate for 24 h, and finally protein lysates were prepared on completion of treatment. The levels of p-Akt, p-ERK and cleaved caspase-3 expressions were detected by Western blot analysis.

p-Akt in LNCaP cells = test: Immunoblot of Akt phosphorylation; format: cell-based, human; details: below 20 μM, 24 h
Description: as §2, §3

Structure (SMILES): COc1cc(/C=C/c2ccc(O)c(/C=N/NC(N)=S)c2)cc(OC)c1 [conjugate, Pterostilbene-isothiocyanate conjugate]
- early apoptotic cells (Annexin V positive only, lower right quadrant) (PC-3 cells; PC-3, 20 μM): about 44%
- late apoptotic cells (Annexin V and PI positive, upper right quadrant) (PC-3 cells; PC-3, 20 μM): 12%
- early apoptotic cells (Annexin V positive only, lower right quadrant) (PC-3 cells; PC-3, 40 μM): ~68%
- late apoptotic cells (Annexin V and PI positive, upper right quadrant) (PC-3 cells; PC-3, 40 μM): 16%
- early apoptotic cells (Annexin V positive only, lower right quadrant) (LNCaP cells; 20 μM): 52%
- late apoptotic cells (Annexin V and PI positive, upper right quadrant) (LNCaP cells; 20 μM): 8%
- late apoptotic cells (Annexin V and PI positive, upper right quadrant) (LNCaP cells; 40 μM): 18.5%
- AR transactivation (DHT alone = 100%) ([1]; with exogenous SRC-1 and GRIP-1): 102%
- AR transactivation (DHT alone = 100%) ([1]; without exogenous co-activators): 64%
- decrease in level of p-Akt (p-Akt in PC-3 cells; PC-3, 20 μM): ~2.2 folds
- decrease in level of p-Akt (p-Akt in PC-3 cells; PC-3, 40 μM): ~4.4 folds
- effect on level of p-Akt (p-Akt in LNCaP cells): negligible effects
